According to paper PMC4926433, “Isoquercitrin Esters with Mono- or Dicarboxylic Acids: Enzymatic Preparation and Properties” (International Journal of Molecular Sciences, 2016):
Values joined by “and” are separate entries in the source; they are usually repeats but may differ in a detail not shown here. Equal values may be shown once. Read-outs that look alike come from different tables or passages of the source. Marks after values point to notes of the source that are not given here.

Assays:
[1] = DPPH radical scavenging assay; type: biochemical; settings: methanol, DPPH 20 µM, 30 min; mean ± SE
Description: When reduced, the solution decolorizes in proportion to the strength and concentration of the antiradical compound tested. The results of this test are usually expressed as the concentration of the compound that reduces 50% of the radical (IC50, Table 1). […] However, no clear relationship between the carboxylic chain length and DPPH radical scavenging activity could be established. Antiradical activity was evaluated spectrophotometrically as the ability of the substances to reduce the DPPH radical as described previously with minor modifications.

[2] = test system: rat liver microsomal membranes; assay: Inhibition of microsomal lipid peroxidation induced by tert-butyl hydroperoxide (TBARS); type: biochemical; settings: for IC50: male rat liver microsomes, tert-butylhydroperoxide 1 mM, 37 °C, 30 min, TBARS, mean ± SE, read-out: Lpx (IC50; µM)
Description: Lipid peroxidation is a type of oxidative degradation of lipids caused by free radicals in cell membranes, resulting in cell damage. The most notable initiators of this chain reaction in living cells are reactive oxygen species (ROS), such as OH· and HO2·, which combine with a hydrogen atom to make water and a fatty acid radical. We used tert-butyl hydroperoxide, a relatively stable organic peroxide, as initiator of peroxidation of rat liver microsomal membranes. The inhibition of this reaction depends not only on the free radical scavenging capacity, but also on the capacity of these compounds to interact with and penetrate lipid bilayers. Isoquercitrin derivatives differed considerably in their capacity to inhibit the peroxidation of microsomal membranes. […] A similar trend, e.g., improving the activity in medium chain derivatives with subsequent drop for longer chain esters, was reported for anti-proliferative activity of IQ monocarboxylic acid esters on the growth of tumoral Caco2 cells, and also for the inhibition of tyrosinase activity.
Pooled microsomes from male rat livers (M9066, Sigma-Aldrich, Prague, Czech Republic) were washed five times using centrifugation and phosphate-buffered saline (PBS, 13,500 rpm, 5 min, 4 °C) to remove sucrose. In addition, 400 µL of the diluted microsomal suspension (0.625 mg protein/mL in PBS), the compounds tested in 50 µL of dimethyl sulfoxide (DMSO, final concentration 5–2000 µM) and 50 µL of tert-butylhydroperoxide in PBS (final concentration 1 mM) were mixed and incubated at 37 °C for 30 min. Determination of lipid peroxidation products as thiobarbituric acid reactive substances (TBARS) and calculation of the IC50 values were performed as described previously.

[3] = Partition coefficient (log P) in octan-1-ol/phosphate buffer pH 7.4; settings: for logP: octan-1-ol / 6.6 mM phosphate buffer pH 7.4, pH 7.4; for Partition Coefficient: octan-1-ol/6.6 mM phosphate buffer pH 7.4, 25 °C, mean ± SD, triplicate
Description: The hydrophobicity of the prepared compounds was determined by the measurement of partition coefficient P in a mixture of two immiscible phases—octan-1-ol and 6.6 mM phosphate buffer pH 7.4 to simulate physiological conditions. Before the use, octan-1-ol was stirred with the buffer for 16 h at 25 °C to achieve saturation of both phases, which were then separated.
Then, 150 µL of the stock solutions were mixed with 150 µL of the respective immiscible phase in microcentrifuge tubes (1.5 mL) and stirred (750 rpm) for 2 h at 25 °C in triplicates. Phases were separated and the solute concentration in each phase was determined in 96-well microtitration plates using Sunrise™ spectrophotometer (Schoeller Instruments, Prague, Czech Republic) at 400 nm. Log P was calculated as follows: log Poct/buffer = log([A]octan-1-ol/[A]buffer).

[4] = ABTS radical cation scavenging (Antioxidant Assay Kit); type: biochemical; settings: Trolox equivalents; aqueous buffer pH 5; mean ± SE
Description: Determination of ABTS scavenging activity involves an electron-transfer reaction. […] The capacity to scavenge the radical cation (ABTS^·) was evaluated using the Antioxidant Assay Kit (CS0790, Sigma-Aldrich, Prague, Czech Republic) and expressed as Trolox equivalents (TE) from the Trolox calibration curve.

[5] = Folin–Ciocalteau reduction (FCR) assay, reducing capacity; type: biochemical; settings: gallic acid equivalents, mean ± SE
Description: Folin-Ciocalteu assay, commonly known as the total phenols assay, determines a sample reducing capacity. FCR contains heteropolyphosphotunstate-molybdates, which are reduced in aqueous milieu at pH ≈ 10 to blue species, presumably (PMoW11O40)^4- [29]. […] This is probably related to high hydrophobicity of these derivatives. Reducing capacity was evaluated using Folin-Ciocalteau reagent with minor modifications as described previously.

Compound | IC50 [1] | IC50 [2] | fold more active than IQ in inhibition of microsomal lipid peroxidation ([2]; ratio of Lpx IC50 values relative to IQ (1)) | logP [3] | Partition Coefficient [3] | ABTS (TE) [4] | FCR (GAE) [5] | log P ([3]; pH 7.4) | IC50 ([2]; listed as quercetin) | FCR (GAE) ([5]; listed as quercetin)
CC(=O)OC[C@H]1O[C@@H](Oc2c(-c3ccc(O)c(O)c3)oc3cc(O)cc(O)c3c2=O)[C@H](O)[C@@H](O)[C@@H]1O [Compound 2, ((2R,3S,4S,5R,6S)-6-((2-(3,4-Dihydroxyphenyl)-5,7-dihydroxy-4-oxo-4H-chromen-3-yl)oxy)-3,4,5-trihydroxytetrahydro-2H-pyran-2-yl)methyl acetate] | 2.51 ± 0.1 µM | 42 ± 2.1 µM | 23 × | 1.14 | 13.76 ± 0.01 | 2.04 ± 0.07 ^i TE | 1.63 ± 0.07 ^b GAE | – | – | –
CCCC(=O)OC[C@H]1O[C@@H](Oc2c(-c3ccc(O)c(O)c3)oc3cc(O)cc(O)c3c2=O)[C@H](O)[C@@H](O)[C@@H]1O [Compound 4, ((2R,3S,4S,5R,6S)-6-((2-(3,4-Dihydroxyphenyl)-5,7-dihydroxy-4-oxo-4H-chromen-3-yl)oxy)-3,4,5-trihydroxytetrahydro-2H-pyran-2-yl)methyl butyrate] | 2.51 ± 0.17 µM | 24.1 ± 0.8 µM | – | 1.96 | 90.64 ± 0.03 | 2.16 ± 0.08 ^i TE | 1.72 ± 0.03 ^a GAE | – | – | –
CCCCCC(=O)OC[C@H]1O[C@@H](Oc2c(-c3ccc(O)c(O)c3)oc3cc(O)cc(O)c3c2=O)[C@H](O)[C@@H](O)[C@@H]1O [Compound 5, ((2R,3S,4S,5R,6S)-6-((2-(3,4-Dihydroxyphenyl)-5,7-dihydroxy-4-oxo-4H-chromen-3-yl)oxy)-3,4,5-trihydroxytetrahydro-2H-pyran-2-yl)methyl hexanoate] | 3.07 ± 0.1 µM | 20 µM and 19.7 µM | – | 2.1 | 126.43 ± 0.01 | 2.11 ± 0.09 ^i TE | 1.48 ± 0.05 ^b GAE | – | – | –
CCCCCCCC(=O)OC[C@H]1O[C@@H](Oc2c(-c3ccc(O)c(O)c3)oc3cc(O)cc(O)c3c2=O)[C@H](O)[C@@H](O)[C@@H]1O [Compound 6, ((2R,3S,4S,5R,6S)-6-((2-(3,4-Dihydroxyphenyl)-5,7-dihydroxy-4-oxo-4H-chromen-3-yl)oxy)-3,4,5-trihydroxytetrahydro-2H-pyran-2-yl)methyl octanoate] | 2.23 ± 0.08 µM | 186 ± 3 µM | – | – | – | 1.28 ± 0.07 TE | 1.47 ± 0.10 ^b GAE | – | – | –
CCCCCCCCCCCC(=O)OC[C@H]1O[C@@H](Oc2c(-c3ccc(O)c(O)c3)oc3cc(O)cc(O)c3c2=O)[C@H](O)[C@@H](O)[C@@H]1O [Compound 7, ((2R,3S,4S,5R,6S)-6-((2-(3,4-Dihydroxyphenyl)-5,7-dihydroxy-4-oxo-4H-chromen-3-yl)oxy)-3,4,5-trihydroxytetrahydro-2H-pyran-2-yl)methyl dodecanoate] | 1.58 ± 0.05 µM | 432 ± 24 µM | – | – | – | 1.06 ± 0.09 ^j TE | 0.63 GAE and 0.63 ± 0.07 ^c GAE | – | – | –
CCCCCCCCCCCCCCCC(=O)OC[C@H]1O[C@@H](Oc2c(-c3ccc(O)c(O)c3)oc3cc(O)cc(O)c3c2=O)[C@H](O)[C@@H](O)[C@@H]1O [Compound 8, ((2R,3S,4S,5R,6S)-6-((2-(3,4-Dihydroxyphenyl)-5,7-dihydroxy-4-oxo-4H-chromen-3-yl)oxy)-3,4,5-trihydroxytetrahydro-2H-pyran-2-yl)methyl palmitate] | 2.23 ± 0.03 µM | 1090 ± 36 µM | – | – | – | 1.0 TE and 1.00 ± 0.06 ^j TE | 0.76 GAE and 0.76 ± 0.03 ^c GAE | – | – | –
O=C(O)CCCC(=O)OC[C@H]1O[C@@H](Oc2c(-c3ccc(O)c(O)c3)oc3cc(O)cc(O)c3c2=O)[C@H](O)[C@@H](O)[C@@H]1O [Compound 9, 6-(((2R,3S,4S,5R,6S)-6-((2-(3,4-Dihydroxyphenyl)-5,7-dihydroxy-4-oxo-4H-chromen-3-yl)oxy)-3,4,5-trihydroxytetrahydro-2H-pyran-2-yl)methoxy)-6-oxopentanoic acid] | 1.77 ± 0.06 µM | 1340 ± 54 µM | – | -1.15 | 0.07 ± 0.01 | 2.13 ± 0.08 ^i TE | 1.84 ± 0.05 ^a GAE | – | – | –
O=C(O)CCCCC(=O)OC[C@H]1O[C@@H](Oc2c(-c3ccc(O)c(O)c3)oc3cc(O)cc(O)c3c2=O)[C@H](O)[C@@H](O)[C@@H]1O [Compound 10, 6-(((2R,3S,4S,5R,6S)-6-((2-(3,4-Dihydroxyphenyl)-5,7-dihydroxy-4-oxo-4H-chromen-3-yl)oxy)-3,4,5-trihydroxytetrahydro-2H-pyran-2-yl)methoxy)-6-oxohexanoic acid] | 2.19 ± 0.12 µM | 250 ± 19 µM | – | -1 | 0.10 ± 0.01 | 2.12 ± 0.10 ^i TE | 1.46 ± 0.14 ^b GAE | – | – | –
O=C(O)CCCCCCCCCCC(=O)OC[C@H]1O[C@@H](Oc2c(-c3ccc(O)c(O)c3)oc3cc(O)cc(O)c3c2=O)[C@H](O)[C@@H](O)[C@@H]1O [Compound 11, 12-(((2R,3S,4S,5R,6S)-6-((2-(3,4-Dihydroxyphenyl)-5,7-dihydroxy-4-oxo-4H-chromen-3-yl)oxy)-3,4,5-trihydroxytetrahydro-2H-pyran-2-yl)methoxy)-12-oxododecanoic acid] | 2.97 ± 0.22 µM | 33 µM and 32.5 µM | – | 0.48 | 3.00 ± 0.03 | 2.16 ± 0.08 ^i TE | 1.58 GAE and 1.58 ± 0.05 ^b GAE | – | – | –
O=c1c(O)c(-c2ccc(O)c(O)c2)oc2cc(O)cc(O)c12 [Quercetin, quercetin, reference compound] | – | – | – | – | 86.27 ± 0.02 | – | – | – | – | –
C[C@@H]1O[C@@H](OC[C@H]2O[C@@H](Oc3c(-c4ccc(O)c(O)c4)oc4cc(O)cc(O)c4c3=O)[C@H](O)[C@@H](O)[C@@H]2O)[C@H](O)[C@H](O)[C@H]1O [Rutin, quercetin-3-O-[α-L-rhamnopyranosyl-(1→6)-β-D-glucopyranose], reference compound] | 3.66 ± 0.39 µM | 202 ± 8 µM | – | – | 0.41 ± 0.01 | 1.79 ± 0.09 TE | 2.19 ± 0.10 GAE | – | – | –
((2R,3S,4R,5R,6S)-3-Acetoxy-6-((2-(3,4-dihydroxyphenyl)-5,7-dihydroxy-4-oxo-4H-chromen-3-yl)oxy)-4,5-dihydroxytetrahydro-2H-pyran-2-yl)methyl acetate [Compound 3] | 2.15 ± 0.04 µM | 433 ± 19 µM | – | – | – | 1.56 ± 0.04 TE | 1.67 ± 0.11 ^b GAE | 1.59 | – | –
quercetin [reference compound] | 3.78 ± 0.15 µM | 29.8 ± 0.6 µM | – | – | – | 2.14 ± 0.10 ^i TE | 2.80 ± 0.16 GAE | – | 30 µM | 2.80 GAE
